# Measured values: ChEMBL document CHEMBL1201862, “PubChem BioAssay data set” (2004)
#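 Results reflect a 48-hour exposure of cells in 96-well plates to compound at five concentrations. GI50: concentration for 50% inhibition of growth.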 Active and inactive are the calls of the source. No stated cut-off is given here; in the data, active = GI50 up to about 1.1 µM and inactive = higher.
# Key:
# Test in all cases: NCI-60 cell line screen, 48 h
# U-251 = system: U-251
# HOP-62 = system: HOP-62
# K562 = system: K562
# SK-MEL-2 = system: SK-MEL-2
# NCI/ADR-RES = system: NCI/ADR-RES
# PC-3 = system: PC-3
# OVCAR-4 = system: OVCAR-4
# RXF 393 = system: RXF 393
# OVCAR-3 = system: OVCAR-3
# COLO 205 = system: COLO 205
# CCRF-CEM = system: CCRF-CEM
# LOX IMVI = system: LOX IMVI
# NCI-H460 = system: NCI-H460
# UACC-62 = system: UACC-62
# OVCAR-8 = system: OVCAR-8
# HCT-116 = system: HCT-116
# SK-MEL-28 = system: SK-MEL-28
# NCI-H522 = system: NCI-H522
# DU-145 = system: DU-145
# TK-10 = system: TK-10
# RPMI-8226 = system: RPMI-8226
# BT-549 = system: BT-549
# A549 = system: A549
# NCI-H226 = system: NCI-H226
# SN12C = system: SN12C
# MDA-MB-231 = system: MDA-MB-231
# SR = system: SR
# Hs-578T = system: Hs-578T
# SF-268 = system: SF-268
# SF-539 = system: SF-539
# MDA-N = system: MDA-N
# T47D = system: T47D
# HT-29 = system: HT-29
# SNB-19 = system: SNB-19
# 786-0 = system: 786-0
# SNB-75 = system: SNB-75
# UO-31 = system: UO-31
# MCF7 = system: MCF7
# MOLT-4 = system: MOLT-4
# HCC 2998 = system: HCC 2998
# CAKI-1 = system: CAKI-1
# NCI-H23 = system: NCI-H23
# EKVX = system: EKVX
# SK-OV-3 = system: SK-OV-3
# M14 = system: M14
# SK-MEL-5 = system: SK-MEL-5
# SF-295 = system: SF-295
# SW-620 = system: SW-620
# Malme-3M = system: Malme-3M
# MDA-MB-435 = system: MDA-MB-435
# KM12 = system: KM12
# HCT-15 = system: HCT-15
# IGROV-1 = system: IGROV-1
# HL-60 = system: HL-60
# UACC-257 = system: UACC-257
# OVCAR-5 = system: OVCAR-5
# HOP-92 = system: HOP-92
# A498 = system: A498
# ACHN = system: ACHN
compound,measurement,setting,value
CN1C2CC(=O)CC1[C@@H]1OC(c3ccccc3)O[C@H]21 (some centres undefined),GI50,U-251,> 100 µM (inactive)
same,GI50,HOP-62,> 100 µM (inactive)
same,GI50,K562,> 100 µM (inactive)
same,GI50,SK-MEL-2,> 100 µM (inactive)
same,GI50,NCI/ADR-RES,> 100 µM (inactive)
same,GI50,PC-3,> 100 µM (inactive)
same,GI50,OVCAR-4,> 100 µM (inactive)
same,GI50,RXF 393,> 100 µM (inactive)
same,GI50,OVCAR-3,> 100 µM (inactive)
same,GI50,COLO 205,> 100 µM (inactive)
same,GI50,CCRF-CEM,> 100 µM (inactive)
same,GI50,LOX IMVI,> 100 µM (inactive)
same,GI50,NCI-H460,> 100 µM (inactive)
same,GI50,UACC-62,> 100 µM (inactive)
same,GI50,OVCAR-8,> 100 µM (inactive)
same,GI50,HCT-116,> 100 µM (inactive)
same,GI50,SK-MEL-28,> 100 µM (inactive)
same,GI50,NCI-H522,> 100 µM (inactive)
same,GI50,DU-145,> 100 µM (inactive)
same,GI50,TK-10,> 100 µM (inactive)
same,GI50,RPMI-8226,> 100 µM (inactive)
same,GI50,BT-549,> 100 µM (inactive)
same,GI50,A549,> 100 µM (inactive)
same,GI50,NCI-H226,> 100 µM (inactive)
same,GI50,SN12C,> 100 µM (inactive)
same,GI50,MDA-MB-231,> 100 µM (inactive)
same,GI50,SR,> 100 µM (inactive)
same,GI50,Hs-578T,> 100 µM (inactive)
same,GI50,SF-268,> 100 µM (inactive)
same,GI50,SF-539,> 100 µM (inactive)
same,GI50,MDA-N,> 100 µM (inactive)
same,GI50,T47D,> 100 µM (inactive)
same,GI50,HT-29,> 100 µM (inactive)
same,GI50,SNB-19,> 100 µM (inactive)
same,GI50,786-0,> 100 µM (inactive)
same,GI50,SNB-75,> 100 µM (inactive)
same,GI50,UO-31,> 100 µM (inactive)
same,GI50,MCF7,> 100 µM (inactive)
same,GI50,MOLT-4,> 100 µM (inactive)
same,GI50,HCC 2998,> 100 µM (inactive)
same,GI50,CAKI-1,> 100 µM (inactive)
same,GI50,NCI-H23,> 100 µM (inactive)
same,GI50,EKVX,> 100 µM (inactive)
same,GI50,SK-OV-3,> 100 µM (inactive)
same,GI50,M14,> 100 µM (inactive)
same,GI50,SK-MEL-5,> 100 µM (inactive)
same,GI50,SF-295,> 100 µM (inactive)
same,GI50,SW-620,> 100 µM (inactive)
same,GI50,Malme-3M,> 100 µM (inactive)
same,GI50,MDA-MB-435,> 100 µM (inactive)
same,GI50,KM12,> 100 µM (inactive)
same,GI50,HCT-15,> 100 µM
same,GI50,IGROV-1,> 100 µM (inactive)
same,GI50,HL-60,> 100 µM (inactive)
same,GI50,UACC-257,> 100 µM (inactive)
O=C(O)c1c(Cl)c(Cl)c(Cl)c(Cl)c1C(=O)Nc1ccc2cn[nH]c2c1,GI50,U-251,> 100 µM (inactive)
same,GI50,HOP-62,59.6 µM (inactive)
same,GI50,K562,97.3 µM (inactive)
same,GI50,SK-MEL-2,> 100 µM (inactive)
same,GI50,NCI/ADR-RES,> 100 µM (inactive)
same,GI50,PC-3,> 100 µM (inactive)
same,GI50,OVCAR-4,> 100 µM (inactive)
same,GI50,RXF 393,> 100 µM (inactive)
same,GI50,OVCAR-3,65.2 µM (inactive)
same,GI50,COLO 205,> 100 µM (inactive)
same,GI50,NCI-H460,> 100 µM (inactive)
same,GI50,UACC-62,> 100 µM (inactive)
same,GI50,OVCAR-8,> 100 µM (inactive)
same,GI50,OVCAR-5,> 100 µM (inactive)
same,GI50,HCT-116,> 100 µM (inactive)
same,GI50,SK-MEL-28,> 100 µM (inactive)
same,GI50,NCI-H522,> 100 µM (inactive)
same,GI50,DU-145,48 µM (inactive)
same,GI50,TK-10,> 100 µM (inactive)
same,GI50,RPMI-8226,37.4 µM (inactive)
same,GI50,BT-549,> 100 µM (inactive)
same,GI50,A549,> 100 µM (inactive)
same,GI50,NCI-H226,> 100 µM (inactive)
same,GI50,SN12C,> 100 µM (inactive)
same,GI50,MDA-MB-231,> 100 µM (inactive)
same,GI50,Hs-578T,39.7 µM (inactive)
same,GI50,SF-268,> 100 µM (inactive)
same,GI50,SF-539,> 100 µM (inactive)
same,GI50,MDA-N,> 100 µM (inactive)
same,GI50,T47D,74.3 µM (inactive)
same,GI50,HT-29,> 100 µM (inactive)
same,GI50,SNB-19,> 100 µM (inactive)
same,GI50,786-0,> 100 µM (inactive)
same,GI50,SNB-75,74.8 µM (inactive)
same,GI50,HOP-92,> 100 µM (inactive)
same,GI50,UO-31,> 100 µM (inactive)
same,GI50,MCF7,92.7 µM (inactive)
same,GI50,A498,> 100 µM (inactive)
same,GI50,CAKI-1,> 100 µM (inactive)
same,GI50,NCI-H23,> 100 µM (inactive)
same,GI50,EKVX,> 100 µM (inactive)
same,GI50,SK-OV-3,> 100 µM (inactive)
same,GI50,M14,> 100 µM (inactive)
same,GI50,ACHN,> 100 µM (inactive)
same,GI50,SK-MEL-5,> 100 µM (inactive)
same,GI50,SF-295,> 100 µM (inactive)
same,GI50,SW-620,> 100 µM (inactive)
same,GI50,Malme-3M,> 100 µM (inactive)
same,GI50,MDA-MB-435,> 100 µM (inactive)
same,GI50,KM12,62.1 µM (inactive)
same,GI50,HCT-15,> 100 µM
same,GI50,IGROV-1,> 100 µM (inactive)
same,GI50,UACC-257,> 100 µM (inactive)
CC1=C(C(=S)Nc2ccc(Cl)c(C(=O)OC(C)C)c2)SCCO1,GI50,U-251,17.6 µM (inactive)
same,GI50,K562,17.1 µM (inactive)
same,GI50,SK-MEL-2,21.5 µM (inactive)
same,GI50,NCI/ADR-RES,18.8 µM (inactive)
same,GI50,PC-3,16.9 µM (inactive)
same,GI50,OVCAR-4,12.3 µM (inactive)
same,GI50,OVCAR-3,22.8 µM (inactive)
same,GI50,COLO 205,20 µM (inactive)
same,GI50,CCRF-CEM,18.2 µM (inactive)
same,GI50,LOX IMVI,15.5 µM (inactive)
same,GI50,NCI-H460,21.8 µM (inactive)
same,GI50,UACC-62,15.5 µM (inactive)
same,GI50,OVCAR-8,20 µM (inactive)
same,GI50,OVCAR-5,34.6 µM (inactive)
same,GI50,HCT-116,15.3 µM (inactive)
same,GI50,SK-MEL-28,17.9 µM (inactive)
same,GI50,NCI-H522,21.4 µM (inactive)
same,GI50,DU-145,20.3 µM (inactive)
same,GI50,TK-10,22.2 µM (inactive)
same,GI50,RPMI-8226,21.9 µM (inactive)
same,GI50,BT-549,17.7 µM (inactive)
same,GI50,A549,31 µM (inactive)
same,GI50,NCI-H226,22.2 µM (inactive)
same,GI50,SN12C,16.7 µM (inactive)
same,GI50,MDA-MB-231,18.2 µM (inactive)
same,GI50,Hs-578T,29.3 µM (inactive)
same,GI50,SF-268,25.1 µM (inactive)
same,GI50,SF-539,18.7 µM (inactive)
same,GI50,MDA-N,18.6 µM (inactive)
same,GI50,T47D,19.6 µM (inactive)
same,GI50,HT-29,18.6 µM (inactive)
same,GI50,SNB-19,16.7 µM (inactive)
same,GI50,786-0,16 µM (inactive)
same,GI50,SNB-75,20.1 µM (inactive)
same,GI50,HOP-92,18.7 µM (inactive)
same,GI50,UO-31,14.9 µM (inactive)
same,GI50,MCF7,32.1 µM (inactive)
same,GI50,MOLT-4,15.7 µM (inactive)
same,GI50,HCC 2998,14.7 µM (inactive)
same,GI50,A498,16.1 µM (inactive)
same,GI50,CAKI-1,24.2 µM (inactive)
same,GI50,NCI-H23,20.6 µM (inactive)
same,GI50,EKVX,19.1 µM (inactive)
same,GI50,SK-OV-3,20.4 µM (inactive)
same,GI50,M14,18.8 µM (inactive)
same,GI50,ACHN,25.8 µM (inactive)
same,GI50,SK-MEL-5,16.9 µM (inactive)
same,GI50,SF-295,15.7 µM (inactive)
same,GI50,SW-620,20.2 µM (inactive)
same,GI50,Malme-3M,20.3 µM (inactive)
same,GI50,MDA-MB-435,19.3 µM (inactive)
same,GI50,KM12,19.4 µM (inactive)
same,GI50,HCT-15,17.1 µM
same,GI50,IGROV-1,16.6 µM (inactive)
same,GI50,HL-60,17.5 µM (inactive)
same,GI50,UACC-257,18.5 µM (inactive)
